Measurements taken from paper PMC3341351, “Down-Regulation of GABAA Receptor via Promiscuity with the Vasoactive Peptide Urotensin II Receptor. Potential Involvement in Astrocyte Plasticity” (PLoS ONE, 2012).

Test system: UT in human U87 glioma
Experiment: Cell surface ELISA of UT in U87 glioma
Format: cell-based
Conditions: hUII 10^−8 M, 30 min, absence or presence of the UT C-terminus
Description: The human cell line from glioblastoma U87 was obtained from the American Type Culture Collection (LGC Standards, Molsheim, France). U87 cells were maintained in DMEM containing 10% FBS and 1% sodium pyruvate. NHA-Astrocytes (Lonza, Walkersville, MD, USA) were cultivated in DMEM culture medium supplemented with 2 mM glutamine, 5 mM HEPES, 1% non essential amino acids, 1% sodium pyruvate, B27, 25 ng/ml EGF, 1% of the antibiotic-antimycotic solution and 10% FBS. All cells were incubated at 37°C in a humidified atmosphere containing 5% CO2. Culture media were replaced every three days.
Cells were plated at 50 000 cells/well in 96-well plates coated with 0.1 mg/ml poly-L-ornithine (Sigma-Aldrich). […] Cells were fixed with 4% PFA in PBS for 5 min at RT, washed in PBS, and then permeabilized in 0.05% triton X100 (only for permeabilized cells) and non specific binding were blocked with PBS containing 1% FBS for 30 min at RT. […] The cells were washed four times with PBS, a colorimetric alkaline phosphatase substrate was added (SuperSignal ELISA, Thermo scientific, Fisher) and the resulting color reaction was measured using a Viktor multilabel plate reader (PerkinElmer, Courtaboeuf, France). Background absorbance from samples transfected with non-tagged receptors or from cells without first antibodies were systematically measured. […]

Sequence: ETPDCFWKYCV (disulfide) [hUII, human urotensin II, synthesized by solid phase methodology]
- UT levels at the cell surface, U87: remained unchanged
